From patent US20250197424A1, “QUINOLINE COMPOUND AND USE THEREOF” (SHANGHAI PHARMACEUTICALS HOLDING CO., LTD., priority 2022, published 2025)
Structures can show the parent of a compound that is named as a salt.

The compounds below were run against GTP-KRAS-G12D:SOS1 (Homo sapiens (Human), UniProt P01116, G12D) (assay: GTP-KRAS-G12D:SOS1 binding inhibition).
Procedure: The IC50 of the compounds was fitted using a nonlinear regression equation with GraphPad Prism 8. The results are presented in Table 2: • Negative control: DMSO • Positive control: 100 μM BI-2852
The following nonlinear fitting formula was used to obtain the IC50 (half-maximal inhibitory concentration) of the compounds:
[formula] • X: logarithm of the compound concentration • Y: 665/615 Ratio

GTP-KRAS-G12D:SOS1, sequence (P01116-2 other isoform, or with tags, fused parts or gaps G12D): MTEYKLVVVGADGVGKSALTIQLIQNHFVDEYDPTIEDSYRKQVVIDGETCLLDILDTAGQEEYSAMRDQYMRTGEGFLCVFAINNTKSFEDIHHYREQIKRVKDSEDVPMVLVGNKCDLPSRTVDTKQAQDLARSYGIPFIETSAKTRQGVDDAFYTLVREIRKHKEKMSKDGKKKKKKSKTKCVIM

| SMILES | IC50 [nM] |
| --- | --- |
| CCc1cccc2cc(O)cc(-c3c(F)c4c5c(nc(OC[C@]67C[C@@H](F)CN6C[C@@H](CN6CCCCC6)C7)nc5c3F)N3CC5CCC(N5)C3CO4)c12 (single isomer, unassigned) [Compound 27b, 4-((2S or 2R,5aS,6S,9R)-1,3-difluoro-13-(((2R,6R,7aS)-2-fluoro-6-(piperidin-1-ylmethyl)tetrahydro-1H-pyrrolizin-7a(5H)-yl)methoxy)-5a,6,7,8,9,10-hexahydro-5H-6,9-epiminoazepino[2′,1′:3,4][1,4]oxazepino[5,6,7-de]quinazolin-2-yl)-5-ethylnaphthalen-2-ol trihydrochloride] | 17.2 |
| CCc1cccc2cc(O)cc(-c3c(F)c4c5c(nc(OC[C@]67C[C@@H](F)CN6C[C@@H](CN6CCN(C)CC6)C7)nc5c3F)N3CC5CCC(N5)C3CO4)c12 (single isomer, unassigned) [Compound 29b, 4-((2R or 2S, 5aS,6S,9R)-1,3-difluoro-13-(((2R,6R,7aS)-2-fluoro-6-((4-methylpiperazin-1-yl)methyl)tetrahydro-1H-pyrrolizin-7a(5H)-yl)methoxy)-5a,6,7,9,10-hexahydro-5H-6,9-epiminoazepino[2′,1′:3,4][1,4]oxazepino[5,6,7-de]quinazolin-2-yl)-5-ethylnaphthalen-2-ol tetrahydrochloride] | 15.7 |
| COc1ccc(-c2cc[nH]n2)c(-c2c(F)c3c4c(nc(OC[C@@]56CCCN5C[C@H](F)C6)nc4c2F)N2CC4CCC(N4)C2CO3)c1 (stereo partly drawn) [Compound 17, (5aS,6S,9R)-1,3-Difluoro-13-(((2R,7aS)-2-fluorotetrahydro-1H-pyrrolizin-7a(5H)-yl)methoxy)-2-(5-methoxy-2-(1H-pyrazol-3-yl)phenyl)-5a,6,7,8,9,10-hexahydro-5H-6,9-epiminoazepino[2′,1′:3,4][1,4]oxazepino[5,6,7-de]quinazoline dihydrochloride] | 8310 |
| Nc1nc2c(-c3c(F)c4c5c(nc(OC[C@@]67CCCN6C[C@H](F)C7)nc5c3F)N3CC5CCC(N5)C3CO4)ccc(F)c2s1 (stereo partly drawn) [Compound 19, 4-((5aS,6S,9R)-1,3-Difluoro-13-(((2R,7aS)-2-fluorotetrahydro-1H-pyrrolizin-7a(5H)-yl)methoxy)-5a,6,7,8,9,10-hexahydro-5H-6,9-epiminoazepino[2′,1′:3,4][1,4]oxazepino[5,6,7-de]quinazolin-2-yl)-7-fluorobenzo[d]thiazol-2-amine dihydrochloride] | 12.7 |
| Nc1cc2ccccc2c(-c2c(F)c3c4c(nc(OC[C@@]56CCCN5C[C@H](F)C6)nc4c2F)N2CC4CCC(N4)C2CO3)n1 (stereo partly drawn) [Compound 22, 1-((5aS,6S,9R)-1,3-Difluoro-13-(((2R,7aS)-2-fluorotetrahydro-1H-pyrrolizin-7a(5H)-yl)methoxy)-5a,6,7,8,9,10-hexahydro-5H-6,9-epiminoazepino[2′,1′:3,4][1,4]oxazepino[5,6,7-de]quinazolin-2-yl) isoquinolin-3-amine] | 13.4 |
| Oc1ccc(-c2cc[nH]n2)c(-c2c(F)c3c4c(nc(OC[C@@]56CCCN5C[C@H](F)C6)nc4c2F)N2CC4CCC(N4)C2CO3)c1 (stereo partly drawn) [Compound 24, 3-((5aS,6S,9R)-1,3-Difluoro-13-(((2R,7aS)-2-fluorotetrahydro-1H-pyrrolizin-7a(5H)-yl)methoxy)-5a,6,7,8,9,10-hexahydro-5H-6,9-epiminoazepino[2′,1′:3,4][1,4]oxazepino[5,6,7-de]quinazolin-2-yl)-4-(1H-pyrazol-3-yl) phenol dihydrochloride] | 2070 |

Further lines, results first:

| IC50 [nM] | SMILES |
| --- | --- |
| 3690 | CCc1cccc2cc(O)cc(-c3c(F)c4c5c(nc(OC[C@]67C[C@@H](F)CN6C[C@@H](CO)C7)nc5c3F)N3CC5CCC(N5)C3CO4)c12 (single isomer, unassigned) [Compound 23a, 4-((2R or 2S, 5aS,6S,9R)-1,3-Difluoro-13-(((2R,6S,7aS)-2-fluoro-6-(hydroxymethyl)tetrahydro-1H-pyrrolizin-7a(5H)-yl)methoxy)-5a,6,7,8,9,10-hexahydro-5H-6,9-epiminoazepino[2′,1′:3,4][1,4]oxazepino[5,6,7-de]quinazolin-2-yl)-5-ethylnaphthalen-2-ol dihydrochloride] |
| 5.75 | CCc1cccc2cc(O)cc(-c3c(F)c4c5c(nc(OC[C@]67C[C@@H](F)CN6C[C@@H](CO)C7)nc5c3F)N3CC5CCC(N5)C3CO4)c12 (single isomer, unassigned) [Compound 23b, 4-((2S or 2R,5aS,6S,9R)-1,3-difluoro-13-(((2R,6S,7aS)-2-fluoro-6-(hydroxymethyl)tetrahydro-1H-pyrrolizin-7a(5H)-yl)methoxy)-5a,6,7,8,9,10-hexahydro-5H-6,9-epiminoazepino[2′,1′:3,4][1,4]oxazepino[5,6,7-de]quinazolin-2-yl)-5-ethylnaphthalen-2-ol dihydrochloride] |
| 247 | Cc1cc(N)nc(-c2c(F)c3c4c(nc(OC[C@@]56CCCN5C[C@H](F)C6)nc4c2F)N2C[C@@H]4CCC(N4)[C@@H]2CCO3)c1C(F)(F)F (single isomer, unassigned) [Compound 26a, 6-((2S or 2R,6aS,7S,10R)-1,3-Difluoro-14-(((2R,7aS)-2-fluorotetrahydro-1H-pyrrolizin-7a(5H)-yl)methoxy)-5,6,6a,7,8,9,10,11-octahydro-7,10-epiminoazepino[1′,2′: 5,6][1,5]oxazocino[4,3,2-de]quinazolin-2-yl)-4-methyl-5-(trifluoromethyl)pyridin-2-amine] |
| 15.7 | Cc1cc(N)nc(-c2c(F)c3c4c(nc(OC[C@@]56CCCN5C[C@H](F)C6)nc4c2F)N2C[C@@H]4CCC(N4)[C@H]2CCO3)c1C(F)(F)F (single isomer, unassigned) [Compound 26b, 6-((2R or 2S, 6aS,7S,10R)-1,3-difluoro-14-(((2R,7aS)-2-fluorotetrahydro-1H-pyrrolizin-7a(5H)-yl)methoxy)-5,6,6a,7,8,9,10,11-octahydro-7,10-epiminoazepino[1′,2′: 5,6][1,5]oxazocino[4,3,2-de]quinazolin-2-yl)-4-methyl-5-(trifluoromethyl)pyridin-2-amine] |
| 5300 | CCc1cccc2cc(O)cc(-c3c(F)c4c5c(nc(OC[C@]67C[C@@H](F)CN6C[C@@H](CN6CCOCC6)C7)nc5c3F)N3CC5CCC(N5)C3CO4)c12 (single isomer, unassigned) [Compound 28a, 4-((2R or 2S, 5aS,6S,9R)-1,3-Difluoro-13-(((2R,6R,7aS)-2-fluoro-6-(morpholinomethyl)tetrahydro-1H-pyrrolizin-7a(5H)-yl)methoxy)-5a,6,7,8,9,10-hexahydro-5H-6,9-epiminoazepino[2′,1′:3,4][1,4]oxazepino[5,6,7-de]quinazolin-2-yl)-5-ethylnaphthalen-2-ol trihydrochloride] |
| 15.2 | CCc1cccc2cc(O)cc(-c3c(F)c4c5c(nc(OC[C@]67C[C@@H](F)CN6C[C@@H](CN6CCOCC6)C7)nc5c3F)N3CC5CCC(N5)C3CO4)c12 (single isomer, unassigned) [Compound 28b, 4-((2S or 2R,5aS,6S,9R)-1,3-difluoro-13-(((2R,6R,7aS)-2-fluoro-6-(morpholinomethyl)tetrahydro-1H-pyrrolizin-7a(5H)-yl)methoxy)-5a,6,7,8,9,10-hexahydro-5H-6,9-epiminoazepino[2′,1′:3,4][1,4]oxazepino[5,6,7-de]quinazolin-2-yl)-5-ethylnaphthalen-2-ol trihydrochloride] |
